Data on 14 compounds can be found in patent US20240368163A1, “COMPOUNDS AND METHODS FOR MODULATING SPLICING” (REMIX THERAPEUTICS INC., priority 2021, published 2024).

Data set [1] relates to HTT. Nature of the data set: Splicing RT-qPCR assay, HTT mRNA canonical junction (CJ) and alternative junction (AJ). The data set is classed as cell-based, human. As to conditions: Homo sapiens, gene panel, CJ qPCR, protocol of Example 142; read-out: HTT IC50 (decrease in CJ mRNA levels). The procedure, abridged: (§1)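 Splice switching is measured in A673 or K562 cells after 24 h compound exposure (maximum 10 uM, 3-fold steps). Canonical and alternative junction mRNA levels are quantified by RT-qPCR relative to housekeeper and DMSO.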
In general terms: Quantitative PCR measures a nucleic acid by following its amplification.

The subject of data set [2] is Target C. Nature of the data set: Splicing RT-qPCR panel, Target C canonical junction (CJ) mRNA. The data set is classed as cell-based, human. Conditions: Homo sapiens, gene panel, CJ qPCR, protocol of Example 142; read-out: Target C IC50 (decrease in CJ mRNA levels). The procedure, abridged: as §1
Data set [3] in a line: Transwell assay for membrane efflux and permeability. The data set is classed as in vitro ADME, Canine. As to conditions: dog; MDCK-BCRP or MDCKII-MDR1 transwell, test compound 1 μM, 2 hours at 37° C. Summed up: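 Transport measured over 2 h at 37 °C with compounds at 1 μM final in HBSS containing 0.5% DMSO. Monolayers of BCRP-expressing MDCK or MDR1-expressing MDCKII cells were cultured 4-8 days, then HBSS-washed and equilibrated 30 min at 37 °C before dosing.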

Some results are limits rather than exact numbers.

As a reminder, the IC50 is the midpoint of a concentration-inhibition curve. As a reminder, the Papp is the rate of passage across a membrane or cell layer, normalised by area and donor concentration. A higher Papp goes with fast passage. The term efflux ratio denotes the permeability from basolateral to apical divided by that in the opposite direction, in the common usage. On to `COc1nc(-c2ccc(N(C)[C@@H]3C[C@H]4CC[C@@H](C3)N4)nn2)ccc1-c1cn[nH]c1` [Compound 906], for which the IC50 in data set [1] was less than 100 nM. Also, the IC50 in data set [2] is less than 100 nM. Further, in data set [3], the Papp at 2 h, 1 μM is less than 2 ×10⁻⁶ cm/s and the efflux ratio at 2 h, 1 μM was more than 5.

With `CN(c1ccc(-c2ccc(-c3cn[nH]c3)cn2)nn1)[C@@H]1C[C@H]2CC[C@@H](C1)N2` [Compound 915], the IC50 in data set [1] was 100 to 1000 nM. The IC50 in data set [2] was 1000 to 10000 nM. For the same compound, in data set [3], the Papp at 2 h, 1 μM was less than 2 ×10⁻⁶ cm/s and the efflux ratio at 2 h, 1 μM was less than 1.5.

With `COc1nc(-c2ccc(OC3CC(C)(C)NC(C)(C)C3)nn2)ccc1-c1cn[nH]c1` [Compound 917], in data set [1], the IC50 fell in the range of 100 to 1000 nM. For the same compound, the IC50 in data set [2] lay in the range of 100 to 1000 nM. For the same compound, in data set [3], the Papp at 2 h, 1 μM was in the range of 2 to 6 ×10⁻⁶ cm/s and the efflux ratio at 2 h, 1 μM is more than 5.

As to `COc1nc(-c2ccc(OC3CC(C)(C)NC(C)(C)C3)nn2)ccc1-c1cnn(C)c1` [Compound 918], in data set [1], the IC50 was in the range of 100 to 1000 nM. Also, the IC50 in data set [2] was 100 to 1000 nM. In data set [3], the Papp at 2 h, 1 μM lay within 2 to 6 ×10⁻⁶ cm/s and the efflux ratio at 2 h, 1 μM was more than 5.

`COc1nc(-c2ccc(N(C)C3CC(C)(C)NC(C)(C)C3)nn2)ccc1-c1cn[nH]c1` [Compound 919]: the values for the IC50 in data set [1] and in data set [2] were less than 100 nM and 100 to 1000 nM, respectively. For the same compound, in data set [3], the Papp at 2 h, 1 μM is less than 2 ×10⁻⁶ cm/s. For the same compound, the efflux ratio at 2 h, 1 μM in data set [3] was more than 5.

Turning to `COc1nc(-c2ccc(N(C)C3CC(C)(C)NC(C)(C)C3)nn2)ccc1-c1cnn(C)c1` [Compound 920], the IC50 in data set [1] fell in the range of 100 to 1000 nM. Also, the IC50 in data set [2] lay in the range of 100 to 1000 nM. In data set [3], the Papp at 2 h, 1 μM lay within 2 to 6 ×10⁻⁶ cm/s and the efflux ratio at 2 h, 1 μM is more than 5.

Take `CN(c1ccc(-c2ccc(-c3cn[nH]c3)c(F)n2)nn1)[C@@H]1C[C@H]2CC[C@@H](C1)N2` [Compound 922]: the IC50 in data set [1] was less than 100 nM. In data set [2], the IC50 lay within 100 to 1000 nM. Also, in data set [3], the Papp at 2 h, 1 μM was less than 2 ×10⁻⁶ cm/s and the efflux ratio at 2 h, 1 μM is more than 5.

In the case of `CN(c1ccc(-c2ccc(-c3cn[nH]c3)c(C#N)n2)nn1)[C@@H]1C[C@H]2CC[C@@H](C1)N2` [Compound 930], the values for the IC50 in data set [1] and in data set [2] were less than 100 nM and 100 to 1000 nM, respectively. The compound also gave a Papp at 2 h, 1 μM in data set [3] of less than 2 ×10⁻⁶ cm/s. Besides, the efflux ratio at 2 h, 1 μM in data set [3] was more than 5.

As to `COc1nc(-c2ccc(N(C)[C@@H]3C[C@H]4CC[C@@H](C3)N4)nn2)cc(F)c1-c1cn[nH]c1` [Compound 931], in data set [1], the IC50 is less than 100 nM. The IC50 in data set [2] is less than 100 nM. Moreover, in data set [3], the Papp at 2 h, 1 μM is less than 2 ×10⁻⁶ cm/s and the efflux ratio at 2 h, 1 μM is more than 5.

Consider `CN(c1ccc(-c2ccc(-c3cn[nH]c3)c(OC3CC3)n2)nn1)[C@@H]1C[C@H]2CC[C@@H](C1)N2` [Compound 939], for which the IC50 in data set [1] was less than 100 nM. For the same compound, in data set [2], the IC50 fell in the range of 100 to 1000 nM. Also, in data set [3], the Papp at 2 h, 1 μM is less than 2 ×10⁻⁶ cm/s and the efflux ratio at 2 h, 1 μM was more than 5.

Consider `COc1cc(-c2ccc(-c3ccc(N(C)[C@@H]4C[C@H]5CC[C@@H](C4)N5)nn3)nc2OC)ncn1` [Compound 954], for which the IC50 in data set [1] was in the range of 1000 to 10000 nM. For the same compound, in data set [2], the IC50 was 1000 to 10000 nM. In data set [3], the Papp at 2 h, 1 μM was less than 2 ×10⁻⁶ cm/s and the efflux ratio at 2 h, 1 μM was more than 5.

In the case of `CN(c1ccc(-c2ccc(-c3cn[nH]c3)c(OC(F)F)n2)nn1)[C@@H]1C[C@H]2CC[C@@H](C1)N2` [Compound 955], the IC50 in data set [1] is less than 100 nM. The IC50 in data set [2] lay within 100 to 1000 nM. Besides, in data set [3], the Papp at 2 h, 1 μM is less than 2 ×10⁻⁶ cm/s and the efflux ratio at 2 h, 1 μM was more than 5.

For the compound `COc1nc(-c2ccc(N3CCC(NC(C)(C)C)C3)nn2)ccc1-c1cn[nH]c1` (centres unmarked) [Compound 956], the IC50 in data set [1] was less than 100 nM. In addition, in data set [2], the IC50 lay within 100 to 1000 nM. For the same compound, in data set [3], the Papp at 2 h, 1 μM was 2 to 6 ×10⁻⁶ cm/s and the efflux ratio at 2 h, 1 μM was more than 5.

As to `COc1nc(-c2ccc(N(C)[C@@H]3C[C@H]4CC[C@@H](C3)N4)nn2)ccc1-c1ccnc(O)c1` [Compound 961], in data set [1], the IC50 is 100 to 1000 nM. Besides, the IC50 in data set [2] was in the range of 100 to 1000 nM. In data set [3], the Papp at 2 h, 1 μM was less than 2 ×10⁻⁶ cm/s and the efflux ratio at 2 h, 1 μM lay in the range of 1.5 to 5.
